pEC50, pKi: −log10 of the molar value. Activity calls are given as the source filed them. The calls are words filed in the database; no cut-off is given here.
Experiments:
[1] = organism: Homo sapiens; assay: Selectivity ratio of Ki for human 5HT3A receptor to Ki for human 5HT4c receptor
[2] = (§1) Half life in rat liver microsomes
[3] = target: T1, 5-hydroxytryptamine receptor 4 (Homo sapiens, UniProt Q13639); assay: Agonist activity at human recombinant 5HT4c receptor expressed in HEK293 cells at 10-fold physiological level assessed as accumulation of cAMP relative to 5HT; format: functional, cell-based
T1 sequence (Q13639 whole entry): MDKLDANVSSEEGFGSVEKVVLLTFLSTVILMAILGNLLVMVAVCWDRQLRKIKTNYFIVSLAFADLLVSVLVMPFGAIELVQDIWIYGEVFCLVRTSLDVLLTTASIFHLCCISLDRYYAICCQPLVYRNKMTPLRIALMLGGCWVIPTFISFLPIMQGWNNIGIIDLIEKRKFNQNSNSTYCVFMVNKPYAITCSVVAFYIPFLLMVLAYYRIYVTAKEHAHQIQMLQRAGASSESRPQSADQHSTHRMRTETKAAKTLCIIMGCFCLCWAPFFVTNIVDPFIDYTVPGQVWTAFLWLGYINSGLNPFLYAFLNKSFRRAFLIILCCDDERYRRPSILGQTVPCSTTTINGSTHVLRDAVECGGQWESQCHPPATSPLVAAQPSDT

[4] = Elimination half life in healthy human administered QD; format: ADME, organism-based; details: in vivo, read-out: beta t1/2 (converted)
[5] = target: 5-hydroxytryptamine receptor 6 (Homo sapiens) (UniProt P50406); assay: Inhibition of 5HT6 receptor at 10 uM
Chain of 5-hydroxytryptamine receptor 6 (Homo sapiens) (P50406 whole entry): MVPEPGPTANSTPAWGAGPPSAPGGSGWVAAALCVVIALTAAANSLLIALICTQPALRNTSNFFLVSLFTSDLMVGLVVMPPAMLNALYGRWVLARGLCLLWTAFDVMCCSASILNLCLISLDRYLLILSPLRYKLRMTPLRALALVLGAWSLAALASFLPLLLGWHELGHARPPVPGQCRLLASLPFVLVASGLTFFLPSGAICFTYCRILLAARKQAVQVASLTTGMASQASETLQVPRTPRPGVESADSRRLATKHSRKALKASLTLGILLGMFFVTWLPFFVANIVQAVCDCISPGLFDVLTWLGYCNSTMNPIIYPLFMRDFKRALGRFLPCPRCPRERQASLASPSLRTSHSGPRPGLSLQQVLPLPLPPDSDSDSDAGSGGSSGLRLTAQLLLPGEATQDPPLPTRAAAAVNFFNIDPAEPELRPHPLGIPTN

[6] = target: 5-hydroxytryptamine receptor 5A (Homo sapiens) (UniProt P47898); assay: Inhibition of 5HT5A receptor at 10 uM
Chain of 5-hydroxytryptamine receptor 5A (Homo sapiens) (P47898 whole entry): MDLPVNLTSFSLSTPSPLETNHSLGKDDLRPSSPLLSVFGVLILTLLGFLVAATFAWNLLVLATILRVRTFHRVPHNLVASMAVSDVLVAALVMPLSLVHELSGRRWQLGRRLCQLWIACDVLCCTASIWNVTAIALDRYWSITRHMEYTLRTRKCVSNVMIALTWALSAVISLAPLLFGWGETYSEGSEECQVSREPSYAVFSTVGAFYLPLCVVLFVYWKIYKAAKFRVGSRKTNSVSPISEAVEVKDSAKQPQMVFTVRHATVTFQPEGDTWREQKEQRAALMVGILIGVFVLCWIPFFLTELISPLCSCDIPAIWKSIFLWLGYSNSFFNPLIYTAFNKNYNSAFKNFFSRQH

[7] = in vivo; details: Sprague-Dawley, rat, po, 5 mg/kg
[8] = in vivo; details: Sprague-Dawley, rat, po, 5 mg/kg; remark: listed apart in the source
[9] = target: 5-hydroxytryptamine receptor 2B (Homo sapiens) (UniProt P41595); assay: Inhibition of 5HT2B receptor at 10 uM
Chain of 5-hydroxytryptamine receptor 2B (Homo sapiens) (P41595 whole entry): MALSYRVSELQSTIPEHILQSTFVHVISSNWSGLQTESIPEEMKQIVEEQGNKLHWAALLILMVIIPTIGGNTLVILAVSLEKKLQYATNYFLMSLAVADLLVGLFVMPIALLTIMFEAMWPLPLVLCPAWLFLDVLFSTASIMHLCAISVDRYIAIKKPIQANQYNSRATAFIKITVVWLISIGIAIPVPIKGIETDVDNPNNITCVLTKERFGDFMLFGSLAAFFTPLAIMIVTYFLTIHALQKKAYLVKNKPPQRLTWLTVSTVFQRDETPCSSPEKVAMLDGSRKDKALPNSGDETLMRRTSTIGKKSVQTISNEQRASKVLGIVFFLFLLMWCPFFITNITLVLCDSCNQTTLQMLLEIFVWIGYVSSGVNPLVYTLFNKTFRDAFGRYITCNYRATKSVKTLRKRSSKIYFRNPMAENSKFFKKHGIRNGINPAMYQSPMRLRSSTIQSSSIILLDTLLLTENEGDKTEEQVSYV

[10] = Half life in Sprague-Dawley rat at 5 mg/kg, po; format: ADME, organism-based; parameters: dose 5 mg/kg, route oral; details: in vivo
[11] = test system: Cavia porcellus; assay: Prokinetic activity in guinea pig colon assessed as decrease in carmine red dye transit time at 0.3 mg/kg, sc relative to vehicle-treated control; format: functional, organism-based; parameters: dose 0.3 mg/kg
[12] = target: T2, 5-hydroxytryptamine receptor 2C (Homo sapiens) (UniProt P28335); assay: Inhibition of 5HT2C receptor at 10 uM
T2 sequence (whole entry): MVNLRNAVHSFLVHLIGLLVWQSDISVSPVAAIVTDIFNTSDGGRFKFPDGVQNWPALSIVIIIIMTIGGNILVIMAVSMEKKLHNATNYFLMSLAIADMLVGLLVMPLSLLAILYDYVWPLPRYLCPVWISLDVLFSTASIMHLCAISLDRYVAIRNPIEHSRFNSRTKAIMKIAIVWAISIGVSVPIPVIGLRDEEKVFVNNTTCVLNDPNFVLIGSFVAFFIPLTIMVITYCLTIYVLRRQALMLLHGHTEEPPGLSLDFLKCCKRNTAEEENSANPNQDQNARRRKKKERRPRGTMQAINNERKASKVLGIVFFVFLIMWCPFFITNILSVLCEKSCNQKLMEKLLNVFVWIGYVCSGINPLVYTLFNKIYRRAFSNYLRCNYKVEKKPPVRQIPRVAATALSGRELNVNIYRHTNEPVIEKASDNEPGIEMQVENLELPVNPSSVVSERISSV

[13] = target: 5-hydroxytryptamine receptor 1B (Homo sapiens) (UniProt P28222); assay: Inhibition of 5HT1B receptor at 10 uM
Chain of 5-hydroxytryptamine receptor 1B (Homo sapiens) (P28222 whole entry): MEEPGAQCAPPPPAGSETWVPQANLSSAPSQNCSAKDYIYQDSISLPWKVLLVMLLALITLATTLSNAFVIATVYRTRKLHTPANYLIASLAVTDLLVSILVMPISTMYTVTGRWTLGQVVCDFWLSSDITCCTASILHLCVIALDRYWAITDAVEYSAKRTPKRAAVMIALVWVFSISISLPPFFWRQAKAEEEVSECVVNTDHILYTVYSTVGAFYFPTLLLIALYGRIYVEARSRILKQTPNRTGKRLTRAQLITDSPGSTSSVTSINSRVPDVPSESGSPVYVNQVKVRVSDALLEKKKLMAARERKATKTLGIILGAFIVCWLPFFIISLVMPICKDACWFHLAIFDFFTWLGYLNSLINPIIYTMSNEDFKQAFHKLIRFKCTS

[14] = target: 5-hydroxytryptamine receptor 1D (Homo sapiens) (UniProt P28221); assay: Inhibition of 5HT1D receptor at 10 uM
Chain of 5-hydroxytryptamine receptor 1D (Homo sapiens) (P28221 whole entry): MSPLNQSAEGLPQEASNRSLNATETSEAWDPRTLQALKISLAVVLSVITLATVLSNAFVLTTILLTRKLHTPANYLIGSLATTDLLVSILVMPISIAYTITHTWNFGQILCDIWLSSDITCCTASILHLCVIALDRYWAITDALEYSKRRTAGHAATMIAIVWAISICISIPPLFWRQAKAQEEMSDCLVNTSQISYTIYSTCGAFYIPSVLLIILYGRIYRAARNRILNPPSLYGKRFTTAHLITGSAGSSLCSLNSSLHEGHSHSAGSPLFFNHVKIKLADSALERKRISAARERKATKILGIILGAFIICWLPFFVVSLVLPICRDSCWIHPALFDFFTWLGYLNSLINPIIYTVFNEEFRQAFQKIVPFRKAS

[15] = target: T3, 5-hydroxytryptamine receptor 3A (Homo sapiens) (UniProt P46098); assay: Inhibition of 5HT3A receptor at 10 uM
T3 sequence (whole entry): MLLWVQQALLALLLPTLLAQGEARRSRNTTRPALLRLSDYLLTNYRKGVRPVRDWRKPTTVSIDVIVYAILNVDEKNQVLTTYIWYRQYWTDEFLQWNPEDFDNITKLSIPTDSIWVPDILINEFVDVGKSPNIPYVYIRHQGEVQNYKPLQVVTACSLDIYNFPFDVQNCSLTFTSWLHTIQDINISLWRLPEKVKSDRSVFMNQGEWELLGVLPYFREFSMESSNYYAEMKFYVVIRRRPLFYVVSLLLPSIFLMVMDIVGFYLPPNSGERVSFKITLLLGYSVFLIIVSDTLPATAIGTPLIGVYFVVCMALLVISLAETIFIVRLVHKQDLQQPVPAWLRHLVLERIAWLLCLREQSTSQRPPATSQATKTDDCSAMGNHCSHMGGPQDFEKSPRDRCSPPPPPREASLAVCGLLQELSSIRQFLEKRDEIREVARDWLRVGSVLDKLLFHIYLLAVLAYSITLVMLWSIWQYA

[16] = target: T4, 5-hydroxytryptamine receptor 1A (Homo sapiens) (UniProt P08908); assay: Inhibition of 5HT1A receptor at 10 uM
T4 sequence (whole entry): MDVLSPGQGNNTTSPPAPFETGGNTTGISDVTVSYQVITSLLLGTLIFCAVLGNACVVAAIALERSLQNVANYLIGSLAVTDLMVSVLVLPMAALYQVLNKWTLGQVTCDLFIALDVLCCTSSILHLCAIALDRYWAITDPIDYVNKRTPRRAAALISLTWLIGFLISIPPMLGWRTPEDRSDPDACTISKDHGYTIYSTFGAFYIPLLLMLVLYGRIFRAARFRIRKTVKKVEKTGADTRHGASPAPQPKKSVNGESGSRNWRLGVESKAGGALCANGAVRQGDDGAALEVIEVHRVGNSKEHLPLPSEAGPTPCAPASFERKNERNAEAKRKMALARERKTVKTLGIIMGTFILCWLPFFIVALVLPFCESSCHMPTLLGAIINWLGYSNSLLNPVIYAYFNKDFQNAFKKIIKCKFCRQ

[17] = test system: Cavia porcellus; assay: Prokinetic activity in sc dosed guinea pig colon assessed as increase in distance traveled by carmine red dye after 60 mins relative to vehicle-treated control; format: functional, organism-based
[18] = target: T5, 5-hydroxytryptamine receptor 7 (Homo sapiens, UniProt P34969); assay: Inhibition of 5HT7 receptor at 10 uM
T5 sequence (P34969 whole entry): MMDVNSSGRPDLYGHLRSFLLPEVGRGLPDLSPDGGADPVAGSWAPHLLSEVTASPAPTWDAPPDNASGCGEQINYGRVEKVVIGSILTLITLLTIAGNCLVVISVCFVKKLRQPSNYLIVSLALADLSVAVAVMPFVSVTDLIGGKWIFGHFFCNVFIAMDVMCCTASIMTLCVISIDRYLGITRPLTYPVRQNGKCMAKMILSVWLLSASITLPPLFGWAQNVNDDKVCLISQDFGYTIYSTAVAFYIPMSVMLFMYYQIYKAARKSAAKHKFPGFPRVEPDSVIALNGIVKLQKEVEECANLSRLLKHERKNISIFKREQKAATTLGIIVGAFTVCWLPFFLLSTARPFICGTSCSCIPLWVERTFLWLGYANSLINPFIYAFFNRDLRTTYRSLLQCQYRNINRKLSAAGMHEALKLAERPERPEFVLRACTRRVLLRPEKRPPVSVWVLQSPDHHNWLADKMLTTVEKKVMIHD

[19] = target: 5-hydroxytryptamine receptor 4 (Cavia porcellus, UniProt O70528); assay: Agonist activity at 5HT4 receptor in guinea pig colonic longitudinal muscle/myenteric plexus assessed as contraction
Chain of 5-hydroxytryptamine receptor 4 (Cavia porcellus, UniProt O70528) (O70528 whole entry): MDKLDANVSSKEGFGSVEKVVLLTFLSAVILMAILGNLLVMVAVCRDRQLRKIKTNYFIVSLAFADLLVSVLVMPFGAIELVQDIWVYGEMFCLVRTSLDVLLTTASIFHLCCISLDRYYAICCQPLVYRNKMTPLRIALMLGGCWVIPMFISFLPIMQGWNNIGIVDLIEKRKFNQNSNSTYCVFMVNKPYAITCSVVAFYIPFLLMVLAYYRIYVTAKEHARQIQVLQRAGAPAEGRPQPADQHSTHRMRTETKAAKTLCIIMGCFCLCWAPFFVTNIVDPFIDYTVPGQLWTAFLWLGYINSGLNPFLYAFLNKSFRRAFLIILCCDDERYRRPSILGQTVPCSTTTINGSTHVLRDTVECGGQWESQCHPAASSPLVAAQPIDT

[20] = test system: Rattus norvegicus; assay: Induction of 5HT4-receptor mediated esophagal relaxation in iv dosed Sprague-Dawley rat; format: functional
[21] = target: T5, 5-hydroxytryptamine receptor 7; assay: Binding affinity to 5HT7 receptor
[22] = target: 5-hydroxytryptamine receptor 2A (Homo sapiens) (UniProt P28223); assay: Inhibition of 5HT2A receptor at 10 uM
Chain of 5-hydroxytryptamine receptor 2A (Homo sapiens) (P28223 whole entry): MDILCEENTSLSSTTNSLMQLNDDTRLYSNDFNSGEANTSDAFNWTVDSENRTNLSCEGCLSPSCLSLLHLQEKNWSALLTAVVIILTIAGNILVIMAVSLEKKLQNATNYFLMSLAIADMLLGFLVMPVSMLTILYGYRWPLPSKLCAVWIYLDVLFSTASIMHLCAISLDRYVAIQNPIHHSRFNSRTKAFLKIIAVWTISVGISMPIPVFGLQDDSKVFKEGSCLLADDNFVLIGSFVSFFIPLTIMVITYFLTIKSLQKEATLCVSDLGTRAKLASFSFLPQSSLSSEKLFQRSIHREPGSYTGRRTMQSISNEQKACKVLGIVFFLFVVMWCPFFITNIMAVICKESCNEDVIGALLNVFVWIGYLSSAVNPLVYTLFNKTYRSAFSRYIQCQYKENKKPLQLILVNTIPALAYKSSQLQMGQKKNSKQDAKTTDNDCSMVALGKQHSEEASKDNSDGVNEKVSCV

[23] = Permeability across human Caco2 cells; details: Caco-2
[24] = target: T1, 5-hydroxytryptamine receptor 4; assay: biochemical
Description: Displacement of [3H]GR113808 from human recombinant 5HT4c receptor expressed in HEK293 cells

[25] = target: T1, 5-hydroxytryptamine receptor 4
[26] = target: hERG (KCNH2) (Homo sapiens, UniProt Q12809); assay: Inhibition of human ERG expressed in CHO cells at 3 uM; details: CHO cells expressing human ERG
Chain of hERG (KCNH2) (Q12809 whole entry): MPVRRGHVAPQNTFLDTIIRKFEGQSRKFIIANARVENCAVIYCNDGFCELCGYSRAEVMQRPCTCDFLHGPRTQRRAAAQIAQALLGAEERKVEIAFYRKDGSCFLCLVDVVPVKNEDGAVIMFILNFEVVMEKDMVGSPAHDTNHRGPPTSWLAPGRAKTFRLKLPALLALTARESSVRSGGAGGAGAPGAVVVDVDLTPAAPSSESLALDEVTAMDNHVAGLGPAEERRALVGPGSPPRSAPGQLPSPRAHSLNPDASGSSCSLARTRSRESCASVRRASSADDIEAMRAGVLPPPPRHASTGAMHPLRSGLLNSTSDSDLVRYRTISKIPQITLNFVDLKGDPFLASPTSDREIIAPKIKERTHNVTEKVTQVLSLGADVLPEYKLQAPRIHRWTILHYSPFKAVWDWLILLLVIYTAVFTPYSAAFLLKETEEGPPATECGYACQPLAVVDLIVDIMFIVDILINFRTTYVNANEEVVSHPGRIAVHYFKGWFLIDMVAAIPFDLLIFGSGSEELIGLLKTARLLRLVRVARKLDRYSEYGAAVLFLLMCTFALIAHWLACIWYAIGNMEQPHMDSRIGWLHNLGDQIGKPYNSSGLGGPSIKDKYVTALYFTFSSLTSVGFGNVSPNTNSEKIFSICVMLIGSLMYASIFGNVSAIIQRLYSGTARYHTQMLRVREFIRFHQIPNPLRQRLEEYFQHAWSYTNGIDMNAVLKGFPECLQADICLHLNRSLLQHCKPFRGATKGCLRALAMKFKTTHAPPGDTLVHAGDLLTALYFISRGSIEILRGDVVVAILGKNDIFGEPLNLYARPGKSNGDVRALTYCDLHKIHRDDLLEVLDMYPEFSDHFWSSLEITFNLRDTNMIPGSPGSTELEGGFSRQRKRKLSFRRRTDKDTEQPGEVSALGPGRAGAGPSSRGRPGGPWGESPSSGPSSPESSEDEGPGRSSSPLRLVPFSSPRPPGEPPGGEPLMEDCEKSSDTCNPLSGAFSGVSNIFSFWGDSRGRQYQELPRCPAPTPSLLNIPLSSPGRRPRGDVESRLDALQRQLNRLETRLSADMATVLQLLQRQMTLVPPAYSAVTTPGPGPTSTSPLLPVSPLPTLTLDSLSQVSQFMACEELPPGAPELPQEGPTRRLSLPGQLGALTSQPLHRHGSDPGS

[27] = test system: Liver microsomes; assay: as §1; details: microsomes

Compound | Ratio Ki [1] | half-life ([2]; liver microsomes) [h] | Intrinsic activity [3] | Papp [23] [×10⁻⁶ cm/s] | pKi [24] | pEC50 [25] | other results
CC(=O)N1CCN(CCN2[C@@H]3CC[C@H]2C[C@@H](NC(=O)c2nn(C(C)C)c4ccccc24)C3)CC1 | 980 | > 1.5 | – | – | – | – | –
CC(C)n1c(=O)c(C(=O)N[C@H]2C[C@H]3CC[C@@H](C2)N3C[C@H](O)CN(C)S(C)(=O)=O)cc2ccccc21 | – | > 1.5 | 97% | – | – | – | –
CC(C)n1c(=O)c(C(=O)N[C@H]2C[C@H]3CC[C@@H](C2)N3C[C@@H](O)CN(C)S(C)(=O)=O)cc2ccccc21 | – | > 1.5 | 95% | – | – | – | half-life [4]: 12 h; inhibition [5]: < 50%; inhibition [6]: < 50%; AUC(0-t) [7]: 460 ng·h/mL; Cmax [8]: 160 ng/mL; inhibition [9]: < 50%; half-life [10]: 1.9 h; Activity [11]: Active; inhibition [12]: < 50%; inhibition [13]: < 50%; inhibition [14]: < 50%; inhibition [15]: < 50%; inhibition [16]: < 50%; Activity [17]: Active; inhibition [18]: < 50%; pEC50 [19]: 7.90; Activity [20]: Dose-dependent effect; ED50 [20]: 0.025 mg/kg; pKi [21]: > 7.00; inhibition [22]: < 50%
CC(C)n1c(=O)c(C(=O)N[C@H]2C[C@H]3CC[C@@H](C2)N3C[C@@H](O)CN2CCN(S(C)(=O)=O)CC2)cc2ccccc21 | 7400 | – | 114% | – | – | – | half-life ([2]; microsomes): > 1.5 h
CC(=O)NCC(O)CN1[C@@H]2CC[C@H]1C[C@@H](NC(=O)c1cc3ccccc3n(C(C)C)c1=O)C2 (mixture of isomers) | 2200 | > 1.5 | 96% | 6 | 7.50 | 8.20 | –
CC(=O)N(C)CC(O)CN1[C@@H]2CC[C@H]1C[C@@H](NC(=O)c1cc3ccccc3n(C(C)C)c1=O)C2 (mixture of isomers) | 1500 | > 1.5 | 95% | 16 | 7.40 | 7.90 | inhibition at 3 µM [26]: 11%
CC(C)n1c(=O)c(C(=O)N[C@H]2C[C@H]3CC[C@@H](C2)N3CC(O)CNC(N)=O)cc2ccccc21 (mixture of isomers) | 3300 | > 1.5 | 82% | – | 7.80 | 8.30 | –
CC(C)n1c(=O)c(C(=O)N[C@H]2C[C@H]3CC[C@@H](C2)N3CC(O)CN(C)C(N)=O)cc2ccccc21 (mixture of isomers) | 1800 | – | 95% | 1 | 7.30 | 7.70 | half-life ([2]; microsomes): > 1.5 h
CNC(=O)NCC(O)CN1[C@@H]2CC[C@H]1C[C@@H](NC(=O)c1cc3ccccc3n(C(C)C)c1=O)C2 (mixture of isomers) | 2400 | > 1.5 | 82% | – | 7.60 | 7.90 | –
CNC(=O)N(C)CC(O)CN1[C@@H]2CC[C@H]1C[C@@H](NC(=O)c1cc3ccccc3n(C(C)C)c1=O)C2 (mixture of isomers) | 870 | – | 95% | – | 7.00 | 7.50 | –
CC(C)n1c(=O)c(C(=O)N[C@H]2C[C@H]3CC[C@@H](C2)N3CC(O)CNC(=O)N(C)C)cc2ccccc21 (mixture of isomers) | 860 | > 1.5 | – | 3 | 7.00 | – | –
CC(C)n1c(=O)c(C(=O)N[C@H]2C[C@H]3CC[C@@H](C2)N3CC(O)CN(C)C(=O)N(C)C)cc2ccccc21 (mixture of isomers) | 260 | > 1.5 | 87% | 33 | 7.30 | 7.70 | inhibition at 3 µM [26]: 64%
COC(=O)NCC(O)CN1[C@@H]2CC[C@H]1C[C@@H](NC(=O)c1cc3ccccc3n(C(C)C)c1=O)C2 (mixture of isomers) | 1600 | – | – | 35 | 7.30 | – | half-life ([2]; microsomes): > 1.5 h; inhibition at 3 µM [26]: 74%
COC(=O)N(C)CC(O)CN1[C@@H]2CC[C@H]1C[C@@H](NC(=O)c1cc3ccccc3n(C(C)C)c1=O)C2 (mixture of isomers) | 710 | > 1.5 | 84% | 35 | 7.40 | 8.00 | inhibition at 3 µM [26]: 40%
CC(C)n1c(=O)c(C(=O)N[C@H]2C[C@H]3CC[C@@H](C2)N3CC(O)CNS(C)(=O)=O)cc2ccccc21 (mixture of isomers) | 1200 | – | 107% | – | 7.70 | 8.10 | inhibition at 3 µM [26]: 10%
CC(C)n1c(=O)c(C(=O)N[C@H]2C[C@H]3CC[C@@H](C2)N3CC(O)CN(C)S(C)(=O)=O)cc2ccccc21 (mixture of isomers) | – | > 1.5 | 96% | – | – | – | –
COc1cc(N)c(Cl)cc1C(=O)N[C@H]1CCN(CCCOc2ccc(F)cc2)C[C@H]1OC (relative stereo) [REL-CISAPRIDE] | – | – | 71 | – | – | – | t1/2 [27]: 0.783 h
CCCCCNC(=N)N/N=C/c1c[nH]c2ccc(OC)cc12 [TEGASEROD] | 580 | > 1.5 | 92% | – | – | 8.60 | ED50 [20]: 0.011 mg/kg

Reference: ChEMBL document CHEMBL2086223 (Bioorg Med Chem Lett, 2012)
